Assay [1] concerns Coniophora puteana BAM Ebw. 15. Description: Agar block method (Bravery test, similar to EN 113) on Southern Yellow Pine wood samples. Format: cell-based. As to conditions: C. puteana, 6 weeks, weight loss <3% = sufficient protection. The protocol:
(§1) The activity threshold of the composition according to the invention from example 1 against wood-destroying Basidiomycetes was determined by the agar block method on wood samples from Pinus spp. (Southern Yellow Pine) of the dimensions 40×15×4 mm^3. The test method with wood samples reduced in size, known as bravery test, is very similar to EN 113 and serves to determine the prophylactic action of wood preservatives against wood-destroying fungi (see A. F. Bravery, Intern. Res. Group Wood Pres., Doc. No. IRG/WP/2113, 5S., Stockholm 1978). For comparison, a solution of epoxiconazole in acetone was tested under the same conditions.
(§2) The wood samples impregnated with the composition according to the invention were, with and without leaching stress, tested according to EN 84. The test was carried out using four different active compound concentrations and in each case 5 parallel samples per active compound concentration and test fungus. The test fungi used were Coniophora puteana BAM Ebw. 15, Poria placenta FPRL 280 and Coriolus versicolor CTB 863A. The destruction of the wood caused by the fungal attack was evaluated using the weight loss of the sample woods, which was determined after 6 weeks. If the weight loss is less than 3% by weight, based on the initial dry weight of the test sample, the protection of the wood achieved by the preservative at a certain active compound concentration is considered to be sufficient. The activity concentration threshold is stated in two concentrations.
(§3) The values determined for a solution of the active compound in acetone are shown for comparison.

A further assay has as its system Poria placenta FPRL 280. The description is as above. In kind it is cell-based. The following applies: P. placenta, 6 weeks, weight loss <3% = sufficient protection. As for the experimental part: as §1, §2, §3
For assay [2], the system named is wood-destroying soil termites (Reticulitermes santonensis). Description: Forced termite test on treated Southern Yellow Pine wood samples (AWPA E1-97) after leaching stress (DIN EN 84). Format: in vivo. The following applies: after leaching (DIN EN 84); 4-week test; lower value = wood no longer sufficiently protected, higher value = minimum concentration for complete protection (score 10). The protocol: Using water, the aqueous active compound composition according to the invention from example 5 was diluted to three different active compound concentrations. For comparison, α-cypermethrin was dissolved in acetone, and the solution was diluted to the corresponding active compound concentrations using further acetone.
To determine the activity thresholds of the composition according to the invention against wood-destroying soil termites (Reticulitermes santonensis), wood samples from Pinus spp. of the dimensions 25×25×6 mm^3 (Southern Yellow Pine), which met the American test standard AWPA E1-97 (see “Standard method for laboratory evaluation to determine resistance to subterranean termites”, American Wood-Preservers' Association, 2001) were tested in a forced test after leaching stress according to DIN EN 84: 1997-01 (see “accelerated aging of treated wood prior to biological testings”, European Committee for Standardization).
The destruction of the wood caused by the termite attack was, after a 4-week test period, evaluated by visual scoring of the sample woods in accordance with AWPA E1-97. In addition, the mortality rate among the termites was estimated. […]
For the aqueous active compound composition according to the invention, the threshold for α-cypermethrin after leaching was determined to be 9-21 g/m^3. […]

Consider `Fc1ccc([C@]2(Cn3cncn3)O[C@H]2c2ccccc2Cl)cc1` (racemic) [Solution of epoxiconazole, epoxiconazole], for which the “Activity thresholds, with leaching” value is recorded as 110-160 g/m^3 in assay [1] (with leaching (EN 84)) and 110-180 g/m^3 in the assay on Poria placenta FPRL 280 (with leaching (EN 84)). The “Activity thresholds, without leaching” value (in assay [1] (without leaching); in the assay with Poria placenta FPRL 280 (without leaching)) was less than 190 g/m^3 in each case.
For `CC1(C)C(C=C(Cl)Cl)C1C(=O)OC(C#N)c1cccc(Oc2ccccc2)c1` (stereo not drawn) [α-cypermethrin], in assay [2], the “threshold for α-cypermethrin after leaching” value is reported as “above 21 g/m^3”.

The values above are taken from patent publication US8974806B2, “Method for producing aqueous active substance compositions of active substances that are hardly soluble in water” (priority 2004, dated 2015).
